Blank lines part the entries; values can stand above or below the compound they belong to.
Experiments:
[1] = target: Epidermal growth factor receptor (Homo sapiens, UniProt P00533); assay: Selectivity interaction (Enzyme panel (AstraZeneca, AlphaScreen, functional assay)) EUB0000621a EGFR
SRSF protein kinase 1 = SRSF protein kinase 1 (Homo sapiens, UniProt Q96SB4); assay: Selectivity interaction (KinomeScan (DiscoverX)) EUB0001049a SRPK1; details: at 1 µM
[2] = target: Tyrosine-protein kinase Fgr (Homo sapiens) (UniProt P09769); assay: Selectivity interaction (Ambit KINOMEscan and KiNATiv profiling in Jurkat cells) EUB0000090b FGR; assay type: cell-based; details: at 1 µM
[3] = target: Tyrosine-protein kinase CSK (Homo sapiens) (UniProt P41240); assay: Selectivity interaction (ActivX KiNativ screen (kinase selectivity in THP-1 cell lysates)) EUB0000639a CSK; assay type: subcellular; details: lysate, at 0.04 µM
[4] = target: T1, Serine/threonine-protein kinase ULK3 (Homo sapiens) (UniProt Q6PHR2); assay: Selectivity interaction (ActivX KiNativ screen (kinase selectivity in THP-1 cell lysates)) EUB0000639a ULK3; assay type: subcellular; details: lysate
T1 sequence (whole entry): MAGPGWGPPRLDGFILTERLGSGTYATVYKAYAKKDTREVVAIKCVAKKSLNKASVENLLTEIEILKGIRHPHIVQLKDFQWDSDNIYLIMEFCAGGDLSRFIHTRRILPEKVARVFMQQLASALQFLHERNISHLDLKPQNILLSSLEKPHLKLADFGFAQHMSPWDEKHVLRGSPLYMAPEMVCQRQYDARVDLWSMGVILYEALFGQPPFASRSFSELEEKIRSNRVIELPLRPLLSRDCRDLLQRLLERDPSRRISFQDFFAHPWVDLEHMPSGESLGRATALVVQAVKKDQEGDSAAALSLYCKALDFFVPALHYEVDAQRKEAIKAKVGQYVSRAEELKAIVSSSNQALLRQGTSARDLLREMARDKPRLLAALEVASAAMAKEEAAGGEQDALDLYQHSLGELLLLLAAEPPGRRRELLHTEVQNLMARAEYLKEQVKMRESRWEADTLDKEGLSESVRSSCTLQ

[5] = target: Serine/threonine-protein kinase pim-2 (Homo sapiens, UniProt Q9P1W9)
[6] = target: T2, Serine/threonine-protein kinase 17A (Homo sapiens) (UniProt Q9UEE5); assay: Selectivity interaction (LanthaScreen Eu Kinase Binding Assay) EUB0001632a STK17A; details: at 10 µM
T2 sequence (whole entry): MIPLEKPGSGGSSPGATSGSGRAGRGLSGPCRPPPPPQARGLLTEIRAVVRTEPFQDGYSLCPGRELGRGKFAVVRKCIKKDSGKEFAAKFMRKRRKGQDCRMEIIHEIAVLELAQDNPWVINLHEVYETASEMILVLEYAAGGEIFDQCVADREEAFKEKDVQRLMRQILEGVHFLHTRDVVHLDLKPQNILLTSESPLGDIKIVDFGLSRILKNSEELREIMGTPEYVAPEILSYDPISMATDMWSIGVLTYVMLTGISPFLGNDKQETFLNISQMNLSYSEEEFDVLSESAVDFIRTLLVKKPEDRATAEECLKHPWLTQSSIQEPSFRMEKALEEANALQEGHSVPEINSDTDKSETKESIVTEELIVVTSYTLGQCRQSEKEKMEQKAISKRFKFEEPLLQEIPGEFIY

[7] = target: AP2-associated protein kinase 1 (Homo sapiens, UniProt Q2M2I8); assay: Selectivity interaction (KinomeScan (DiscoverX)) EUB0001079a AAK1; details: at 1 µM
[8] = target: Homeodomain-interacting protein kinase 3 (Homo sapiens, UniProt Q9H422); assay: Selectivity interaction (KinomeScan (DiscoverX)) EUB0001079a HIPK3; details: at 1 µM
[9] = target: T3, Mitogen-activated protein kinase kinase kinase 2 (Homo sapiens) (UniProt Q9Y2U5); assay: Selectivity interaction (ProQinase) EUB0000171b MAP3K2
T3 sequence (whole entry): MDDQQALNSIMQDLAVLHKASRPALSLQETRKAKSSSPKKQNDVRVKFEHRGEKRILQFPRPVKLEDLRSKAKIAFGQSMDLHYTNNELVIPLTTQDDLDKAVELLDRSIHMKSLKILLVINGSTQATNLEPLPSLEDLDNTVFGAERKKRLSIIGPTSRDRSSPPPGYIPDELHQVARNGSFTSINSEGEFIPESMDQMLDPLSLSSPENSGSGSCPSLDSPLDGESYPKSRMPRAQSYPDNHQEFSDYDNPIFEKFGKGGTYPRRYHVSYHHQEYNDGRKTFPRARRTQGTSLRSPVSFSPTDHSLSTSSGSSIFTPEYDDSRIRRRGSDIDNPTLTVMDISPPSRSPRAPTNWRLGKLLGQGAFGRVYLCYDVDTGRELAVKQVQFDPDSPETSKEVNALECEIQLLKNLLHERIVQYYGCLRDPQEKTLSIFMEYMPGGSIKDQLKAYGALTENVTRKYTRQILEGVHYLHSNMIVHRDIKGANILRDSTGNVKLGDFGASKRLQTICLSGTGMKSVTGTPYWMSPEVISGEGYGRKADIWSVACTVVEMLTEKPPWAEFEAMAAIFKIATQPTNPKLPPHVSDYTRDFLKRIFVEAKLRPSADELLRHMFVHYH

[10] = target: Thromboxane-A synthase (Homo sapiens) (UniProt P24557); assay: Selectivity interaction (Eurofins safety panel) EUB0001564a CYP5A1; details: at 10 µM
[11] = target: Serine/threonine-protein kinase PRP4 homolog (Homo sapiens) (UniProt Q13523); assay: Selectivity interaction (KinomeScan (DiscoverX)) EUB0001619a PRPF4; details: at 1 µM
[12] = target: Platelet-derived growth factor receptor alpha (Homo sapiens, UniProt P16234); assay: Selectivity interaction (KinomeScan (DiscoverX)) EUB0000618a PDGFRA; details: at 10 µM
[13] = target: Mitogen-activated protein kinase 14 (Homo sapiens, UniProt Q16539); assay: Selectivity interaction (SelectScreen profiling (Invitrogen)) EUB0000607a MAPK14; details: at 2 µM
[14] = target: Casein kinase I isoform gamma-2 (Homo sapiens) (UniProt P78368); assay: Selectivity interaction (KinomeScan (DiscoverX)) EUB0000607a CSNK1G2; details: at 10 µM

SRSF protein kinase 1, sequence (Q96SB4 whole entry): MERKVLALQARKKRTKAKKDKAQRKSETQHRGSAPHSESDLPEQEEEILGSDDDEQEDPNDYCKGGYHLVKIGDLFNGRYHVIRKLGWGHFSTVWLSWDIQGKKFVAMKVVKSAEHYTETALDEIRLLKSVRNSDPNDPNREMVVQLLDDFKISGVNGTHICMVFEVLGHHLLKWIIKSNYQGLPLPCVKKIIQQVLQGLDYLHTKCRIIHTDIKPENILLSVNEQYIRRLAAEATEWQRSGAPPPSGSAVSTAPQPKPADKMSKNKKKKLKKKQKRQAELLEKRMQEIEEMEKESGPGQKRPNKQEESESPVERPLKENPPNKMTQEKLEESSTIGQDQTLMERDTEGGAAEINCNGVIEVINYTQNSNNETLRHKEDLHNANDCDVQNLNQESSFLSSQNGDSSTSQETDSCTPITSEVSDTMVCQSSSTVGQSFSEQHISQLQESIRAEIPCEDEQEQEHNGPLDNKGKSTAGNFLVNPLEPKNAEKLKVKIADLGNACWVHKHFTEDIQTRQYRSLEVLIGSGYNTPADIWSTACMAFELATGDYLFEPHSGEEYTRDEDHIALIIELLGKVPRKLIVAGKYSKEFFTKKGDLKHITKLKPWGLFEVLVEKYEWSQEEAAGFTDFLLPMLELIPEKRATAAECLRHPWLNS
Mitogen-activated protein kinase 14, sequence (Q16539 whole entry, canonical isoform): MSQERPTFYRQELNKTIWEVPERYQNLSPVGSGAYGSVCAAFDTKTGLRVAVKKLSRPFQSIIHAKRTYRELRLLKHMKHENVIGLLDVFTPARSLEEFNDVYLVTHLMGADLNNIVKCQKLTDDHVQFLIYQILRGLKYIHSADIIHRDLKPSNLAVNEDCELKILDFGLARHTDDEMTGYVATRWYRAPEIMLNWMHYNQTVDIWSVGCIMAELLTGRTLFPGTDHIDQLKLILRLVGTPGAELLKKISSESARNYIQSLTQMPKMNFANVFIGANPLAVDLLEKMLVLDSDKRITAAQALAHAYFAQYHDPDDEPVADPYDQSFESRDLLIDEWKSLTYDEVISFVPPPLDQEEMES
Tyrosine-protein kinase Fgr (Homo sapiens), sequence (P09769 2-529 limits assumed): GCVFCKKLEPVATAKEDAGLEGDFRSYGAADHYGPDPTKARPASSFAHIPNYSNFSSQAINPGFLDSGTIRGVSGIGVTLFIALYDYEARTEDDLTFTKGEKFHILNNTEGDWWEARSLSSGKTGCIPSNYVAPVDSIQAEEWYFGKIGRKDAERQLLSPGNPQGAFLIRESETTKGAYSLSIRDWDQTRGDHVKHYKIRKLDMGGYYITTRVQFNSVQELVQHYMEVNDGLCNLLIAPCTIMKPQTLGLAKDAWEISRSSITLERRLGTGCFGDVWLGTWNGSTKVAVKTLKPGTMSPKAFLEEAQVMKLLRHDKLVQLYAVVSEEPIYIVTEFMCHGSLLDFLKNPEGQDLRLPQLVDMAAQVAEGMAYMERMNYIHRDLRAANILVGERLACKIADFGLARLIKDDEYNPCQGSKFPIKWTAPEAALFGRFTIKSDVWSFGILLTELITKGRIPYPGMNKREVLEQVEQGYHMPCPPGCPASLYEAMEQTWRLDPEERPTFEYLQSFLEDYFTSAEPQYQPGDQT
Epidermal growth factor receptor, sequence (P00533 whole entry): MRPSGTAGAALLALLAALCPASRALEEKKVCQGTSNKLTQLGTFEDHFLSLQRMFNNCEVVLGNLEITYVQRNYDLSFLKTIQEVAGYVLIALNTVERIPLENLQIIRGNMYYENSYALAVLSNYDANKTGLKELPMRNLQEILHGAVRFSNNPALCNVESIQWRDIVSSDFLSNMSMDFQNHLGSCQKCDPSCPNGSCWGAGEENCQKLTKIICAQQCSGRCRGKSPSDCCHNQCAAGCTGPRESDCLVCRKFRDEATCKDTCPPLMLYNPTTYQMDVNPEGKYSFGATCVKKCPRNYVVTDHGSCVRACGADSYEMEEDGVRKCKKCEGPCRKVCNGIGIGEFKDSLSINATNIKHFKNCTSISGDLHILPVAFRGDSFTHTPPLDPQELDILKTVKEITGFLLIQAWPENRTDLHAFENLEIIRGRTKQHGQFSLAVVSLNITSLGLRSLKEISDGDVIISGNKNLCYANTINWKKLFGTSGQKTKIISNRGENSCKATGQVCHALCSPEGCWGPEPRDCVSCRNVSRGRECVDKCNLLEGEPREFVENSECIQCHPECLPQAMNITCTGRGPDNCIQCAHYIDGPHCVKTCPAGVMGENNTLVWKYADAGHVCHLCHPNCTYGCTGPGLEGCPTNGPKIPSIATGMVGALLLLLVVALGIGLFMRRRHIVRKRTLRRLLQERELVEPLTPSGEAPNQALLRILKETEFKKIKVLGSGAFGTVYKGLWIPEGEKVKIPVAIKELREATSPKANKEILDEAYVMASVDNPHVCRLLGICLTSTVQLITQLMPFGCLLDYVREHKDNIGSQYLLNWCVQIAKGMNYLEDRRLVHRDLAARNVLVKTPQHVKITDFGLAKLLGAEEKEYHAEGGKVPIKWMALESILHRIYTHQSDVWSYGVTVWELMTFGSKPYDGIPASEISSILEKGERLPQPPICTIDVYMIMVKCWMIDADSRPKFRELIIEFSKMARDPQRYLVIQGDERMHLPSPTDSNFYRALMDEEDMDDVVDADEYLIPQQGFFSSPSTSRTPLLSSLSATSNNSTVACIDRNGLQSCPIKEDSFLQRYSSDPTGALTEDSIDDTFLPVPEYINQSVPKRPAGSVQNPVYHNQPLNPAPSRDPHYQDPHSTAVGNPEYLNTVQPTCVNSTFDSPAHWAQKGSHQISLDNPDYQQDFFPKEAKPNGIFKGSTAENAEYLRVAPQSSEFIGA
Serine/threonine-protein kinase pim-2, sequence (Q9P1W9 whole entry): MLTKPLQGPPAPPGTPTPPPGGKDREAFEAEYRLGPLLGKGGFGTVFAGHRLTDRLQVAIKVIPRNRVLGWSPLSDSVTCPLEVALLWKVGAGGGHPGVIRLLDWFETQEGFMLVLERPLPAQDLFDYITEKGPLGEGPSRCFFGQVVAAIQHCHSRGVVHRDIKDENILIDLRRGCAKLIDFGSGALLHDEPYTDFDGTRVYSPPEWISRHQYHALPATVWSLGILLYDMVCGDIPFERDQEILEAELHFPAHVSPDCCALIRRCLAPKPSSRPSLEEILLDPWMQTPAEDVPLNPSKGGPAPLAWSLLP
Thromboxane-A synthase (Homo sapiens), sequence (P24557 whole entry): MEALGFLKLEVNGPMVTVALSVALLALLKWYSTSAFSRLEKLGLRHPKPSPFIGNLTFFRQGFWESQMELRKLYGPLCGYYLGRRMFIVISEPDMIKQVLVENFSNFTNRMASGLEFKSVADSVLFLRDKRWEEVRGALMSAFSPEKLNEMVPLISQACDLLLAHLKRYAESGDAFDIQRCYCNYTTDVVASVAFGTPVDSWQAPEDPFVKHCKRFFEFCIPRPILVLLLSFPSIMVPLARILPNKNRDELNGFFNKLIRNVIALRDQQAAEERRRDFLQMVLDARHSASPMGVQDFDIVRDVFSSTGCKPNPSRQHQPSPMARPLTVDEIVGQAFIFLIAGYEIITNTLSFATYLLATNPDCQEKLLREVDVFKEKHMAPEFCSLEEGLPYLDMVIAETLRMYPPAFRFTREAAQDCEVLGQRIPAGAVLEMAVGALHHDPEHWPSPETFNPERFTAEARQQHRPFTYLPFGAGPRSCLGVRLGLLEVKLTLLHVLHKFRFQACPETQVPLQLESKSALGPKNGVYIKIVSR
Homeodomain-interacting protein kinase 3, sequence (Q9H422 whole entry, looked up): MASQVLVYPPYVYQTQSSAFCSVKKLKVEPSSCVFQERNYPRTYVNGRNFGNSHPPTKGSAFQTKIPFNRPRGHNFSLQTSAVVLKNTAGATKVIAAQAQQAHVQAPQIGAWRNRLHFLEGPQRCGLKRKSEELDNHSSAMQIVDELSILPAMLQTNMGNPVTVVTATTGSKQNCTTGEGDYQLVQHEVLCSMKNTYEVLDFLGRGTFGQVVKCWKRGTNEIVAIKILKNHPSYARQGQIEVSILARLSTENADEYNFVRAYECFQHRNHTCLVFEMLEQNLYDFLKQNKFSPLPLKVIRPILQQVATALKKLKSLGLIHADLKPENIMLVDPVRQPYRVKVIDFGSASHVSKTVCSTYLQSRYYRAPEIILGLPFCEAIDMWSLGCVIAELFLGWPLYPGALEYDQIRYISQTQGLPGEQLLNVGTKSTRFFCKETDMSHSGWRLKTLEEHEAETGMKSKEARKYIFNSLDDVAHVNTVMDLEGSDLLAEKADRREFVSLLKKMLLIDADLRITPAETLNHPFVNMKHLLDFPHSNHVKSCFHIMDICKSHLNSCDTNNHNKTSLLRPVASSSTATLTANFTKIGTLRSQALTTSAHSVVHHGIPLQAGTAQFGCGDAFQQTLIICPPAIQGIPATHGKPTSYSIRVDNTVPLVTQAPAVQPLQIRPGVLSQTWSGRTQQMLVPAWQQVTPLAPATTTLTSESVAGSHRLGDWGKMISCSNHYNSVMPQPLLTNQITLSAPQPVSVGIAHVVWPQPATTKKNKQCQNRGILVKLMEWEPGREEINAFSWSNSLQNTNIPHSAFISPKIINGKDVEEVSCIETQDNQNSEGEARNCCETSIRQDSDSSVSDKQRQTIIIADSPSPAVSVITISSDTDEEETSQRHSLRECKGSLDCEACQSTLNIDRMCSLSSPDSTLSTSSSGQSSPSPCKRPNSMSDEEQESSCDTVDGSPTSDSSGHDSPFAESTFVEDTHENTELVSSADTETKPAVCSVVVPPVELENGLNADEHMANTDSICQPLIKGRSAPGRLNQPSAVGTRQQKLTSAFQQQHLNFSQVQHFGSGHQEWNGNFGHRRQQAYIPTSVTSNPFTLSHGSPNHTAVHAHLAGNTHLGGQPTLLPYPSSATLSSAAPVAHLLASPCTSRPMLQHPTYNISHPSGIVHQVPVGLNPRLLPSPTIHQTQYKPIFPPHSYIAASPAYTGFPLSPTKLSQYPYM

SMILES: Cc1cc([C@@H](C)Nc2ccccc2C(=O)O)c2nc(N3CCOCC3)cc(=O)n2c1 [AZD-6482]
IC50 [1]: > 298 µM

SMILES: COc1cc(Nc2nc(C)cc(-c3cnn4nc(OC)ccc34)n2)cc(C(F)(F)F)c1
% of control (SRSF protein kinase 1): 96%

SMILES: CN(C)C/C=C/C(=O)Nc1ccc(C(=O)N2CCCC(Nc3ncc(Cl)c(-c4c[nH]c5ccccc45)n3)C2)cc1 (stereo not given)
% of control [2]: 92%

% of inhibition [3]: 7.9%
% of inhibition ([4]; at 0.01 µM): 11.3%
% of inhibition ([4]; at 0.04 µM): 2.1%
% of inhibition ([4]; at 0.2 µM): 3.4%
% of inhibition ([4]; at 1 µM): 5.1%
% of inhibition ([4]; at 5 µM): -3.4%
SMILES: CC[C@@H]1[C@H](F)C(=O)N[C@@H]1COc1nccc2cc(C(N)=O)c(OC)cc12 [ZIMLOVISERTIB]

IC50 [5]: > 10 µM
SMILES: CCc1cccc(CC)c1NC(=O)c1nn(C)c2c1CCc1cnc(Nc3ccc(C(=O)NC4CCN(C)CC4)cc3OC(F)(F)F)nc1-2

% of inhibition [6]: -13.2%
SMILES: Cn1cc(-n2cnc3c(NCc4nc5cc(Cl)c(Cl)cc5[nH]4)nc(N4CCOCC4)nc32)cn1

SMILES: Nc1cnc(N2CCc3cc(S(=O)(=O)Nc4c(F)cc(Cl)cc4F)cc(N4CCCC4=O)c32)nc1 [TP-020n]
% of control [7]: 100%
% of control [8]: 100%

% of control ([9]; at 1 µM): 99%
% of control ([9]; at 5 µM): 88%
SMILES: C=CC(=O)Nc1cccc(C(=O)Nc2ccc(Nc3cc(-c4[nH]c(SC)nc4C)ccn3)cc2)c1

SMILES: CC[C@@H](Nc1c(C#N)c(-c2ccc(-c3cccc(C)c3F)cc2)nc2cnccc12)C(=O)O [BAY-091]
% of inhibition [10]: 98%

SMILES: N#Cc1cccc(-c2c[nH]c3ncnc(N4CCOCC4)c23)c1
% of control [11]: 92%

SMILES: O[C@H]1CC[C@H](Nc2ncc3nc(Nc4c(F)cc(F)cc4F)n([C@H]4CCOC4)c3n2)CC1
% of control [12]: 82%

SMILES: CNC(=O)Nc1ccc(-c2nc(N3CC4CCC(C3)O4)c3cnn(C4CCC5(CC4)OCCO5)c3n2)cc1
% of inhibition [13]: 11%
% of control [14]: 95%

— ChEMBL document CHEMBL5465560, “Selectivity Literature for EUbOPEN Chemogenomic Library” (2024)
